For data set [1], the system named is murine P388 lymphocytic leukemia cell line. Nature of the data set: Cancer cell growth inhibition, murine P388 lymphocytic leukemia cell line. Conditions: for IC50: Mus musculus. It counts as cell-based. In outline: (§1)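 Growth inhibition in murine P388 leukemia and human cancer cell line panels (Arizona State University minipanel and NCI 60-cell screen).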
The subject of data set [2] is ovary OVCAR-3. Nature of the data set: Cancer cell growth inhibition, ovary OVCAR-3. It counts as cell-based, human. The conditions noted are these: Table 1. An excerpt:
(§2) (Boyd, M. R., Cancer: Principles and Practices of Oncology Updates; […], et al., Eds; Lippincott: Philadelphia, 1989, Vol. 10, No. 3, pp. 1-12; Boyd, et al., Drug Development Research 1995, 34, 91-109; Boyd, M. R., et al. Cytotoxic Anticancer Drugs: Models and Concepts for Drug Discovery and Development; Valeriote, A., et al., Eds, Kluwer Academic Publishers: Amsterdam, 1992, pp. 11-34.)

Data set [3] deals with CNS SF-295. Nature of the data set: Cancer cell growth inhibition, CNS SF-295. The conditions noted are these: Table 1. It counts as cell-based, human.
Source text: as §2

Data set [4] has as its system renal A498. Nature of the data set: Cancer cell growth inhibition, renal A498. It counts as cell-based, human. Conditions: Table 1.
Source text: as §2

Data set [5] has as its system lung NCI-H460. Nature of the data set: Cancer cell growth inhibition, lung NCI-H460. It is filed as cell-based, human. The conditions noted are these: Homo sapiens. In outline: as §1
Data set [6] concerns colon KM 20L2. Nature of the data set: Cancer cell growth inhibition, colon KM 20L2. It counts as cell-based, human. The conditions noted are these: Homo sapiens. The essentials:
as §1

Data set [7] concerns melanoma SK-MEL-5. Nature of the data set: Cancer cell growth inhibition, melanoma SK-MEL-5. It counts as cell-based, human. Conditions: Table 1.
Source text: as §2

The test system of data set [8] is pancreas BXPC-3. Nature of the data set: Cancer cell growth inhibition, pancreas BXPC-3. It counts as cell-based, human. Conditions: Homo sapiens. Here is the method: (§3) Biology The cancer cell growth inhibitory properties were examined using the murine P388 lymphocytic leukemia cell line and a selection of human cancer cell lines.
(§4) All of the synthetic products were evaluated against a minipanel of human cancer cell lines, the murine P388 lymphocytic leukemia cell line and a selection of microorganisms.

For data set [9], the system named is breast MCF-7. Nature of the data set: Cancer cell growth inhibition, breast MCF-7. Conditions: Homo sapiens. It counts as cell-based, human. Here is the method: as §3, §4
Data set [10] relates to CNS SF-268. Nature of the data set: Cancer cell growth inhibition, CNS SF-268. The conditions noted are these: Homo sapiens. It is filed as cell-based, human. Here is the method:
as §3, §4

Data set [11] deals with prostrate DU-145. Nature of the data set: Cancer cell growth inhibition, prostate DU-145. Conditions: Homo sapiens. It counts as cell-based, human. The method, then: as §3, §4
Data set [12] deals with Cryptococcus neoformans. Nature of the data set: Broth microdilution susceptibility assay, Cryptococcus neoformans. It counts as cell-based. For orientation: Broth dilution looks for growth in wells or tubes with falling amounts of substance.
The subject of data set [13] is Candida albicans. Nature of the data set: Broth microdilution susceptibility assay, Candida albicans. It counts as cell-based.
For data set [14], the system named is Staphylococcus aureus. Nature of the data set: Broth microdilution susceptibility assay, Staphylococcus aureus. It counts as cell-based.
Data set [15] has as its system Streptococcus pneumoniae. Nature of the data set: Broth microdilution susceptibility assay, Streptococcus pneumoniae. It is filed as cell-based.
Data set [16] concerns Enterococcus faecalis. Nature of the data set: Broth microdilution susceptibility assay, Enterococcus faecalis. It counts as cell-based.
Data set [17] deals with Micrococcus luteus. Nature of the data set: Broth microdilution susceptibility assay, Micrococcus luteus. It counts as cell-based.
The test system of data set [18] is Escherichia coli. Nature of the data set: Broth microdilution susceptibility assay, Escherichia coli. It is filed as cell-based.
Data set [19] concerns Enterobacter cloacae. Nature of the data set: Broth microdilution susceptibility assay, Enterobacter cloacae. It is filed as cell-based.
Data set [20] deals with Stenotrophomonas maltophilia. Nature of the data set: Broth microdilution susceptibility assay, Stenotrophomonas maltophilia. It counts as cell-based.
For data set [21], the system named is Neisseria gonorrhoeae. Nature of the data set: Broth microdilution susceptibility assay, Neisseria gonorrhoeae. It is filed as cell-based.
In data set [22] the target is PKC alpha (Homo sapiens, UniProt P17252). Nature of the data set: Inhibition of [3H]phorbol 12,13-dibutyrate binding to PKC alpha. Conditions: 30 μM compound; read-out: inhibition of [3H]phorbol 12,13-dibutyrate binding to PKC alpha. Here is the method: Isoaaptamine (2) and derivatives 4, 5, 7, 8, and 14-18 were evaluated as ligands for PKC, based on the initial report of activity for isoaaptamine (Patil, et al., PCT Int. Appl. WO 95/0584 March 1995). Activity was measured at 30 μM compound using inhibition of [^3H-20]phorbol 12,13-dibutyrate binding to PKC alpha as described previously (Kazanietz, M. G., et al., Molecular Pharmacol., 1993, 44, 298). Assays were carried out with triplicate measurements in either single or triplicate experiments, depending on the compound.
Compounds 4, 5, 9a-c, and 10a-d were evaluated as ligands for PKC, based on the initial report of activity for isoaaptamine. Activity was measured at 30 μM compound using inhibition of [20-^3H]phorbol 12,13-dibutyrate binding to PKC alpha as described previously (Kazanietz, M. G., et al., Characterization of Ligand and Substrate Specificity for the Calcium-Dependent and Calcium-Independent Protein Kinase C Isoenzymes, Molecular Pharmacol. 1993, 44, 298-307). Assays were carried out with triplicate measurement in either single or triplicate experiments, depending on the compound. Inhibition by 9a and 9b was 6.4% and 9.2%, respectively. That by 10a, 10b, and 10d was 11.8%, 12.6%, and 16.0%, respectively. That by other derivatives was 5% or less. We conclude that these compounds show only very weak activity as ligands for PKC.

Data set [23] concerns tubulin. Nature of the data set: Tubulin polymerization (assembly) inhibition. It is filed as biochemical. The conditions noted are these: read-out: IC50 for inhibition of extent of tubulin assembly. The method, then:
Only minimal inhibitory activity was observed. While compounds 15 and 8 did inhibit the rate of polymerization by over 50% at 40 μM (the highest concentration examined), an IC50 value for inhibition of assembly extent was obtained only for compound 18. […] Thus, it seems unlikely that the cytotoxic mechanism for these aaptamine analogs derives from an interaction with tubulin.
A number of the aaptamine derivatives whose synthesis is described here were examined for potential effects on tubulin assembly. These were compounds 2, 4, 5, 9a-c, and 10a-d. […] For comparison, in experiments performed contemporaneously, the potent colchicine site drug combretastatin A-4 yielded an IC50 value of about 2 μM.

The nature of data set [24]: Stability of the substance (observation). It counts as physicochemical. The text has this:
When newly isolated, isoaaptamine (2) appears as a yellow colored powder that rapidly changes to dark green and finally brown or black, presumably due to air oxidation. […] For that purpose, isoaaptamine (2) was first phosphorylated with dibenzylphosphate (Pettit, G. R. et al., Anti-Cancer Drug Design 2000, 15, 203-216; Silverberg, L. J., Tetrahedron Lett. 1996, 37, 771-774). […] Scheme 2 below illustrates the aforementioned synthesis method. [drawing 17] Biology

The nature of data set [25]: Antimicrobial activity in the presence of human serum. It is filed as cell-based. The text has this:
The antimicrobial activity of phenols 15 and 18 in the presence of human serum was also investigated.

[26] abbreviates: Table 2, read-out: Range of minimum inhibitory concentration.
Where [27] appears, read: read-out: Range of minimum inhibitory concentration.

Experimental findings from patent publication US20050187240A1, “Aaptamine and isoaaptamine and structural modifications thereof” (The Arizona Board of Regents, Acting for and on behalf of …, priority 2004, published 2005) are described below.

Structures are written as SMILES. In brackets after ≈: the same amount, converted by molar mass. Where a name gives a salt, the structure may show the parent alone. Read-outs that look alike come from different tables or passages of the source.

Usually inhibition stands for the drop in the measured response relative to a control, in per cent. On to `COc1cc2ccnc3c2c(c1O)N(C)C=C3` [Compound 2, isoaaptamine], for which the IC50 in data set [1] (P388, Table 3, leukemia P-388, read-out: Cancer cell growth inhibitory ED50) is 1.6 µg/mL (≈ 7.01 µM); in [1] (Table 1, leukemia murine P388, read-out: Cancer Cell Line Results ED50) it was 0.28 µg/mL (≈ 1.23 µM); in [5] (Table 1, lung NCI-H460, read-out: Cancer Cell Line Results ED50) it was 2.4 µg/mL (≈ 10.5 µM); in data set [5] (Table 3, lung NCI-H460, read-out: Cancer cell growth inhibitory ED50) it was 2.9 µg/mL (≈ 12.7 µM); in data set [6] (Table 1, colon KM 20L2, read-out: Cancer Cell Line Results ED50), 2.3 µg/mL (≈ 10.1 µM); in data set [6] (Table 3, colon KM 20L2, read-out: Cancer cell growth inhibitory ED50) it was above 10 µg/mL. Besides, the IC50 in data set [8] (Table 3, pancreas BXPC-3, read-out: Cancer cell growth inhibitory ED50) was found to be 4.1 µg/mL (≈ 18 µM); in [9] (MCF7, Table 3, breast MCF-7, read-out: Cancer cell growth inhibitory ED50), 2.2 µg/mL (≈ 9.64 µM); in data set [10] (Table 3, CNS SF-268, read-out: Cancer cell growth inhibitory ED50), 2.2 µg/mL (≈ 9.64 µM); in data set [11] (Table 3, prostrate DU-145, read-out: Cancer cell growth inhibitory ED50) it was 3.3 µg/mL (≈ 14.5 µM); in data set [23] (b138 series, 20 minutes incubation at 30° C.), 31 µM. In addition, the “P388 ED50” value in data set [1] (murine P388) worked out at 0.28 µg/mL. Moreover, the “Cancer Cell Line Results ED50” value in data set [2] is 1.20 µg/mL; in [3] it was 2.60 µg/mL; in data set [4], 2.20 µg/mL; in data set [7] it was 1.60 µg/mL. The MIC in data set [12] (setting [26]) is 64 µg/mL (≈ 280 µM); in [14] (setting [26]), 16 to 32 µg/mL (≈ 70.1 to 140 µM); in [15] (setting [26]) it was 8 to 32 µg/mL (≈ 35 to 140 µM); in data set [16] (setting [26]) it was 32 to 64 µg/mL (≈ 140 to 280 µM); in data set [17] (setting [26]), 32 to 64 µg/mL (≈ 140 to 280 µM); in data set [21] (setting [26]), below 0.5 µg/mL. Besides, the “Range of minimum inhibitory concentration” value in data set [13] (Table 2), in data set [18] (Table 2), in data set [19] (Table 2) and in data set [20] (Table 2) was “* (no inhibition at 64 ug/ml)” each time. The inhibition at 30 µM in data set [22] worked out at 13%. For the same molecule, the “stability” value in [24] is “relatively unstable”.
Regarding `COc1cc2ccnc3c2c(c1O)NC=C3` [Compound 18, 9-Demethylaaptamine hydrobromide], the IC50 was 0.22 µg/mL in [1] (P388, read-out: Cancer cell growth inhibitory ED50); 2 µg/mL in data set [5] (NCI-H460, read-out: Cancer cell growth inhibitory ED50); 1.7 µg/mL in data set [6] (KM-20L2, read-out: Cancer cell growth inhibitory ED50); 1.6 µg/mL in data set [8] (BXPC-3, read-out: Cancer cell growth inhibitory ED50); 0.66 µg/mL in data set [9] (MCF7, read-out: Cancer cell growth inhibitory ED50); 1.4 µg/mL in data set [10] (SF-268, read-out: Cancer cell growth inhibitory ED50). For the same molecule, the IC50 in data set [11] (DU-145, read-out: Cancer cell growth inhibitory ED50) turned out to be 1.8 µg/mL; in data set [23] (b62 series), 37 ± 4 µM. Also, the MIC is 32 µg/mL in [12] (setting [27]); 64 µg/mL in data set [13] (setting [27]); 16 µg/mL in data set [14] (setting [27]); 2 to 4 µg/mL in data set [15] (setting [27]); 8 to 32 µg/mL in [16] (setting [27]); 8 µg/mL in data set [17] (setting [27]). Further, the MIC is 32 to 64 µg/mL in data set [18] (setting [27]), above 64 µg/mL in data set [19] (setting [27]), above 64 µg/mL in [20] (setting [27]) and above 0.5 µg/mL in data set [21] (setting [27]). The “minimum inhibitory concentrations in the presence of human serum versus absence of serum” value in data set [25] is reported as “identical or one 2-fold dilution lower”.
